Results: the supplement of paper PMC10307832

How the values were obtained:
Assay in all cases: relative viability (nuclei count vs DMSO), 5 days (fraction); higher = more cells survive
IPA-3 + Pictilisib = compound: C1=CC=C2C(=C1)C=CC(=C2SSC3=C(C=CC4=CC=CC=C43)O)O [IPA-3] + CS(=O)(=O)N1CCN(Cc2cc3nc(-c4cccc5[nH]ncc45)nc(N4CCOCC4)c3s2)CC1 [Pictilisib] (partner 1 µM)
How it was run: (§1)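 Lung cancer cell lines in 1536-well plates got either a single drug or a fixed anchor-drug dose together with five library-drug doses (not always all listed) in √10 steps, by pin tool, on the day after seeding. Nuclei were counted after 5 days, and relative viability is the treated-to-vehicle ratio of nuclei counts. Values are medians of duplicate plates.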

RAF265 + Trametinib = compound: Cn1c(Nc2ccc(C(F)(F)F)cc2)nc2cc(Oc3ccnc(-c4ncc(C(F)(F)F)[nH]4)c3)ccc21 [RAF265] + CC(=O)Nc1cccc(-n2c(=O)n(C3CC3)c(=O)c3c(Nc4ccc(I)cc4F)n(C)c(=O)c(C)c32)c1 [Trametinib] (partner 0.02 µM)
How it was run: as §1

RAF265 + Palbociclib = compound: Cn1c(Nc2ccc(C(F)(F)F)cc2)nc2cc(Oc3ccnc(-c4ncc(C(F)(F)F)[nH]4)c3)ccc21 [RAF265] + CC(=O)c1c(C)c2cnc(Nc3ccc(N4CCNCC4)cn3)nc2n(C2CCCC2)c1=O [Palbociclib] (partner 0.5 µM)
How it was run: as §1

RAF265 + AZD7762 = compound: Cn1c(Nc2ccc(C(F)(F)F)cc2)nc2cc(Oc3ccnc(-c4ncc(C(F)(F)F)[nH]4)c3)ccc21 [RAF265] + NC(=O)Nc1cc(-c2cccc(F)c2)sc1C(=O)N[C@H]1CCCNC1 [AZD7762] (partner 0.2 µM)
How it was run: as §1

| Cell Line | relative viability (IPA-3 + Pictilisib; first compound 0.2 µM) | relative viability (IPA-3 + Pictilisib; first compound 0.6325 µM) | relative viability (IPA-3 + Pictilisib; first compound 2 µM) | relative viability (IPA-3 + Pictilisib; first compound 6.325 µM) | relative viability (IPA-3 + Pictilisib; first compound 20 µM) | relative viability (RAF265 + Trametinib; first compound 0.01 µM) | relative viability (RAF265 + Trametinib; first compound 0.03162 µM) | relative viability (RAF265 + Trametinib; first compound 0.1 µM) | relative viability (RAF265 + Trametinib; first compound 0.3162 µM) | relative viability (RAF265 + Trametinib; first compound 1 µM) | relative viability (RAF265 + Palbociclib; first compound 0.01 µM) | relative viability (RAF265 + Palbociclib; first compound 0.03162 µM) | relative viability (RAF265 + Palbociclib; first compound 0.1 µM) | relative viability (RAF265 + Palbociclib; first compound 0.3162 µM) | relative viability (RAF265 + Palbociclib; first compound 1 µM) | relative viability (RAF265 + AZD7762; first compound 0.01 µM) | relative viability (RAF265 + AZD7762; first compound 0.03162 µM) | relative viability (RAF265 + AZD7762; first compound 0.1 µM) | relative viability (RAF265 + AZD7762; first compound 0.3162 µM) | relative viability (RAF265 + AZD7762; first compound 1 µM) |
| --- | --- | --- | --- | --- | --- | --- | --- | --- | --- | --- | --- | --- | --- | --- | --- | --- | --- | --- | --- | --- |
| LCLC-97TM1 | 0.195 | 0.165 | 0.198 | 0.216 | 0.175 | 0.225 | 0.151 | 0.149 | 0.16 | 0.0901 | 0.233 | 0.245 | 0.158 | 0.208 | 0.0796 | 0.203 | 0.323 | 0.259 | 0.167 | 0.0766 |
| LCLC-103H | 0.572 | 0.596 | 0.533 | 0.578 | 0.705 | 0.679 | 0.689 | 0.609 | 0.638 | 0.465 | 0.463 | 0.47 | 0.496 | 0.404 | 0.322 | 0.815 | 0.911 | 0.767 | 0.727 | 0.598 |
| LK-2 | 0.47 | 0.572 | 0.708 | 0.646 | 0.695 | 0.721 | 0.628 | 0.787 | 0.799 | 0.53 | 0.558 | 0.679 | 0.722 | 0.804 | 0.364 | 0.506 | 0.432 | 0.537 | 0.448 | 0.371 |
| LOU-NH91 | 0.505 | 0.501 | 0.567 | 0.523 | 0.57 | 0.837 | 0.756 | 0.717 | 0.71 | 0.636 | 0.565 | 0.524 | 0.55 | 0.537 | 0.436 | 0.756 | 0.71 | 0.687 | 0.631 | 0.551 |
| LU99A | 0.353 | 0.317 | 0.333 | 0.321 | 0.277 | 0.551 | 0.469 | 0.314 | 0.288 | 0.21 | 0.366 | 0.35 | 0.325 | 0.217 | 0.144 | 0.419 | 0.344 | 0.404 | 0.325 | 0.235 |
| LXF-289 | 0.85 | 0.703 | 0.772 | 0.791 | 0.918 | 0.667 | 0.692 | 0.551 | 0.488 | 0.339 | 0.622 | 0.615 | 0.625 | 0.498 | 0.313 | 1.12 | 1.26 | 1.24 | 0.849 | 0.871 |
| NCI-H23 | 0.672 | 0.531 | 0.473 | 0.509 | 0.611 | 0.404 | 0.262 | 0.239 | 0.239 | 0.17 | 0.499 | 0.342 | 0.304 | 0.262 | 0.206 | 0.309 | 0.263 | 0.228 | 0.182 | 0.169 |
| NCI-H322M | 0.501 | 0.272 | 0.508 | 0.481 | 0.572 | 0.496 | 0.421 | 0.486 | 0.507 | 0.409 | 0.474 | 0.498 | 0.425 | 0.381 | 0.326 | 0.55 | 0.717 | 0.493 | 0.381 | 0.404 |
| NCI-H358 | 0.35 | 0.347 | 0.372 | 0.372 | 0.291 | 0.152 | 0.115 | 0.116 | 0.127 | 0.129 | 0.129 | 0.117 | 0.116 | 0.129 | 0.124 | 0.46 | 0.515 | 0.491 | 0.279 | 0.184 |
| NCI-H441 | 0.479 | 0.457 | 0.41 | 0.462 | 0.427 | 0.598 | 0.504 | 0.461 | 0.436 | 0.457 | 0.212 | 0.237 | 0.233 | 0.171 | 0.183 | 1.1 | 1.08 | 1.2 | 0.967 | 0.936 |
| NCI-H460 | 0.479 | 0.321 | 0.36 | 0.408 | 0.557 | 0.238 | 0.23 | 0.133 | 0.156 | 0.0601 | 0.203 | 0.203 | 0.171 | 0.2 | 0.0711 | 0.586 | 0.666 | 0.775 | 0.598 | 0.38 |
| NCI-H647 | 0.44 | 0.351 | 0.363 | 0.434 | 0.471 | 0.46 | 0.451 | 0.277 | 0.222 | 0.19 | 0.335 | 0.401 | 0.196 | 0.228 | 0.218 | 0.578 | 0.452 | 0.404 | 0.332 | 0.262 |
| NCI-H650 | 1.15 | 0.89 | 0.922 | 1.17 | 1.15 | 1.05 | 0.972 | 1.05 | 0.569 | 0.328 | 0.306 | 0.345 | 0.303 | 0.232 | 0.206 | 0.969 | 0.966 | 0.996 | 0.551 | 0.748 |
| NCI-H727 | 0.583 | 0.229 | 0.456 | 0.513 | 0.402 | 0.403 | 0.371 | 0.392 | 0.334 | 0.317 | 0.684 | 0.626 | 0.692 | 0.611 | 0.602 | 0.471 | 0.67 | 0.576 | 0.494 | 0.606 |
| NCI-H838 | 0.533 | 0.455 | 0.451 | 0.463 | 0.337 | 0.542 | 0.511 | 0.518 | 0.462 | 0.39 | 0.203 | 0.222 | 0.193 | 0.176 | 0.154 | 0.865 | 0.953 | 0.964 | 1.03 | 0.841 |
| NCI-H1355 | 0.396 | 0.396 | 0.466 | 0.484 | 0.401 | 0.438 | 0.355 | 0.383 | 0.283 | 0.206 | 0.449 | 0.364 | 0.328 | 0.248 | 0.181 | 0.816 | 0.668 | 0.772 | 0.68 | 0.515 |
| NCI-H1395 | 0.607 | 0.61 | 0.441 | 0.651 | 0.668 | 1.12 | 0.933 | 1.1 | 0.968 | 0.685 | 0.634 | 0.56 | 0.567 | 0.597 | 0.437 | 0.403 | 0.382 | 0.422 | 0.419 | 0.393 |
| NCI-H1437 | 0.562 | 0.486 | 0.458 | 0.61 | 0.616 | 0.544 | 0.552 | 0.505 | 0.716 | 0.493 | 0.318 | 0.315 | 0.305 | 0.366 | 0.306 | 1.08 | 1.13 | 1.2 | 1.15 | 1.1 |
| NCI-H1651 | 0.649 |  | 0.581 | 0.659 | 0.799 | 0.797 | 0.808 | 0.795 | 0.796 | 0.734 | 0.508 | 0.517 | 0.504 | 0.479 | 0.47 | 0.508 | 0.497 | 0.401 | 0.406 | 0.365 |
| NCI-H1666 | 0.541 | 0.521 | 0.445 | 0.403 | 0.541 | 0.89 | 0.852 | 0.784 | 0.839 | 0.656 | 0.612 | 0.577 | 0.595 | 0.663 | 0.585 | 0.935 | 0.882 | 0.837 | 0.854 | 0.825 |
| NCI-H1734 | 0.469 | 0.473 | 0.441 | 0.494 | 0.435 | 0.722 | 0.526 | 0.564 | 0.535 | 0.276 | 0.384 | 0.319 | 0.324 | 0.286 | 0.221 | 0.545 | 0.516 | 0.437 | 0.325 | 0.217 |
| NCI-H1755 | 0.455 | 0.358 | 0.397 | 0.345 | 0.536 | 0.753 | 0.727 | 0.688 | 0.647 | 0.467 | 0.385 | 0.445 | 0.462 | 0.414 | 0.309 | 0.548 | 0.475 | 0.483 | 0.405 | 0.425 |
| NCI-H1792 | 0.258 | 0.285 | 0.25 | 0.272 | 0.325 | 0.485 | 0.408 | 0.361 | 0.218 | 0.0679 | 0.658 | 0.676 | 0.758 | 0.474 | 0.298 | 0.638 | 0.568 | 0.475 | 0.11 | 0.0984 |
| NCI-H1793 | 0.318 | 0.352 | 0.314 | 0.367 | 0.418 | 0.403 | 0.44 | 0.303 | 0.232 | 0.237 | 0.309 | 0.274 | 0.218 | 0.213 | 0.195 | 0.413 | 0.572 | 0.332 | 0.197 | 0.132 |
| NCI-H1915 | 0.956 | 0.987 | 0.903 | 0.966 | 0.933 | 0.327 | 0.275 | 0.23 | 0.151 | 0.1 | 0.525 | 0.435 | 0.438 | 0.236 | 0.147 | 0.649 | 0.655 | 0.663 | 0.602 | 0.41 |
| NCI-H1944 | 0.351 | 0.344 | 0.371 | 0.38 | 0.345 | 0.454 | 0.453 | 0.386 | 0.324 | 0.246 | 0.356 | 0.367 | 0.291 | 0.261 | 0.185 | 0.75 | 0.617 | 0.512 | 0.448 | 0.365 |
